Measured values taken from ChEMBL document CHEMBL2434921, “New synthetic aliphatic sulfonamido-quaternary ammonium salts as anticancer chemotherapeutic agents” (2013).
Calls of active or inactive are those of the source. No cut-off for these calls is given here.

Key:
HCT-15 [1] = experiment: Growth inhibition of human HCT15 cells at 1 uM after 48 hrs by SRB assay; values are per cent of control; conditions: HCT-15, 48 h
HCT-15 [2] = experiment: Growth of human HCT15 cells at 0.3 uM after 48 hrs by SRB assay; conditions: HCT-15, 48 h
[3] = target: Rho-related GTP-binding protein RhoB (Homo sapiens) (UniProt P62745); experiment: Transactivation of RhoB (unknown origin) transfected in human HeLa cells at 5 uM measured over 10 secs by dual luciferase reporter gene assay; type: cell-based
Sequence of Rho-related GTP-binding protein RhoB (Homo sapiens) (P62745 whole entry): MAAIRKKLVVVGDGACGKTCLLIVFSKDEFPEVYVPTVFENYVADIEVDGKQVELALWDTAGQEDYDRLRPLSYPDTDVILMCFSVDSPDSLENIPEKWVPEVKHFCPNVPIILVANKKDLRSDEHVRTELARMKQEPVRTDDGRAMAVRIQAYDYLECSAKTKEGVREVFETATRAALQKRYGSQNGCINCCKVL

PC-3 [4] = experiment: Growth inhibition of human PC3 cells at 0.1 uM after 48 hrs by SRB assay; values are per cent of control; conditions: PC-3, 48 h
MDA-MB-231 [5] = experiment: Growth inhibition of human MDA-MB-231 cells at 0.3 uM after 48 hrs by SRB assay; values are per cent of control; conditions: MDA-MB-231, 48 h
HCT-15 [6] = experiment: Growth of human HCT15 cells at 3 uM after 48 hrs by SRB assay; conditions: HCT-15, 48 h
ACHN [7] = experiment: Growth of human ACHN cells at 10 uM after 48 hrs by SRB assay
PC-3 [8] = experiment: Growth inhibition of human PC3 cells at 3 uM after 48 hrs by SRB assay; values are per cent of control; conditions: PC-3, 48 h
ACHN [9] = experiment: Growth inhibition of human ACHN cells at 1 uM after 48 hrs by SRB assay; values are per cent of control
HCT-15 [10] = experiment: Growth inhibition of human HCT15 cells at 0.1 uM after 48 hrs by SRB assay; values are per cent of control; conditions: HCT-15, 48 h
NCI-H23 [11] = experiment: Growth inhibition of human NCI-H23 cells after 48 hrs by SRB assay; type: functional; conditions: NCI-H23, 48 h
MDA-MB-231 [12] = experiment: Growth of human MDA-MB-231 cells at 1 uM after 48 hrs by SRB assay; conditions: MDA-MB-231, 48 h
NUGC-3 [13] = experiment: Growth inhibition of human NUGC3 cells at 10 uM after 48 hrs by SRB assay; values are per cent of control; conditions: NUGC-3, 48 h
NUGC-3 [14] = experiment: Growth of human NUGC3 cells at 0.1 uM after 48 hrs by SRB assay; conditions: NUGC-3, 48 h
NCI-H23 [15] = experiment: Growth inhibition of human NCI-H23 cells at 3 uM after 48 hrs by SRB assay; values are per cent of control; conditions: NCI-H23, 48 h
PC-3 [16] = experiment: Growth of human PC3 cells at 10 uM after 48 hrs by SRB assay; conditions: PC-3, 48 h
PC-3 [17] = experiment: Growth inhibition of human PC3 cells after 48 hrs by SRB assay; type: functional; conditions: PC-3, 48 h
MDA-MB-231 [18] = experiment: Growth of human MDA-MB-231 cells at 3 uM after 48 hrs by SRB assay; values are per cent of control; conditions: MDA-MB-231, 48 h
PC-3 [19] = experiment: Growth inhibition of human PC3 cells at 0.3 uM after 48 hrs by SRB assay; values are per cent of control; conditions: PC-3, 48 h
NCI-H23 [20] = experiment: Growth of human NCI-H23 cells at 10 uM after 48 hrs by SRB assay; conditions: NCI-H23, 48 h
ACHN [21] = experiment: Growth inhibition of human ACHN cells at 3 uM after 48 hrs by SRB assay; values are per cent of control
MDA-MB-231 [22] = experiment: Growth of human MDA-MB-231 cells at 0.1 uM after 48 hrs by SRB assay; conditions: MDA-MB-231, 48 h
NUGC-3 [23] = experiment: Growth of human NUGC3 cells at 1 uM after 48 hrs by SRB assay; conditions: NUGC-3, 48 h
NUGC-3 [24] = experiment: Growth of human NUGC3 cells at 0.3 uM after 48 hrs by SRB assay; conditions: NUGC-3, 48 h
NUGC-3 [25] = experiment: Growth inhibition of human NUGC3 cells after 48 hrs by SRB assay; type: functional; conditions: NUGC-3, 48 h
ACHN [26] = experiment: Growth of human ACHN cells at 0.3 uM after 48 hrs by SRB assay
NUGC-3 [27] = experiment: Growth inhibition of human NUGC3 cells at 3 uM after 48 hrs by SRB assay; values are per cent of control; conditions: NUGC-3, 48 h
HCT-15 [28] = experiment: Growth inhibition of human HCT15 cells after 48 hrs by SRB assay; type: functional; conditions: HCT-15, 48 h
MDA-MB-231 [29] = experiment: Growth inhibition of human MDA-MB-231 cells after 48 hrs by SRB assay; type: functional; conditions: MDA-MB-231, 48 h
NCI-H23 [30] = experiment: Growth inhibition of human NCI-H23 cells at 0.1 uM after 48 hrs by SRB assay; values are per cent of control; conditions: NCI-H23, 48 h
MDA-MB-231 [31] = experiment: Growth of human MDA-MB-231 cells at 10 uM after 48 hrs by SRB assay; conditions: MDA-MB-231, 48 h
ACHN [32] = experiment: Growth of human ACHN cells at 0.1 uM after 48 hrs by SRB assay
NCI-H23 [33] = experiment: Growth inhibition of human NCI-H23 cells at 1 uM after 48 hrs by SRB assay; values are per cent of control; conditions: NCI-H23, 48 h
ACHN [34] = experiment: Growth inhibition of human ACHN cells after 48 hrs by SRB assay; type: functional
NCI-H23 [35] = experiment: Growth of human NCI-H23 cells at 0.3 uM after 48 hrs by SRB assay; conditions: NCI-H23, 48 h
PC-3 [36] = experiment: Growth inhibition of human PC3 cells at 1 uM after 48 hrs by SRB assay; values are per cent of control; conditions: PC-3, 48 h
HCT-15 [37] = experiment: Growth inhibition of human HCT15 cells at 10 uM after 48 hrs by SRB assay; values are per cent of control; conditions: HCT-15, 48 h

| Compound | growth, % of control at 1 µM (HCT-15 [1]) [%] | growth, % of control at 0.3 µM (HCT-15 [2]) [%] | Activity [3] | growth, % of control at 0.1 µM (PC-3 [4]) [%] | growth, % of control at 0.3 µM (MDA-MB-231 [5]) [%] | growth, % of control at 3 µM (HCT-15 [6]) [%] | growth, % of control at 10 µM (ACHN [7]) [%] | growth, % of control at 3 µM (PC-3 [8]) [%] | growth, % of control at 1 µM (ACHN [9]) [%] | growth, % of control at 0.1 µM (HCT-15 [10]) [%] | GI50 (NCI-H23 [11]) [nM] | growth, % of control at 1 µM (MDA-MB-231 [12]) [%] | growth, % of control at 10 µM (NUGC-3 [13]) [%] | growth, % of control at 0.1 µM (NUGC-3 [14]) [%] | growth, % of control at 3 µM (NCI-H23 [15]) [%] | growth, % of control at 10 µM (PC-3 [16]) [%] | GI50 (PC-3 [17]) [nM] | growth, % of control at 3 µM (MDA-MB-231 [18]) [%] | growth, % of control at 0.3 µM (PC-3 [19]) [%] | growth, % of control at 10 µM (NCI-H23 [20]) [%] | further results |
| --- | --- | --- | --- | --- | --- | --- | --- | --- | --- | --- | --- | --- | --- | --- | --- | --- | --- | --- | --- | --- | --- |
| CCCCCCCCCCCCCCCCS(=O)(=O)NCCC[N+](C)(C)C | 73.6 | 93 | Active | 100 | 108 | 22.4 | -7.7 | -1 | 112 | 96 | 1560 | 87 | -37.7 | 103 | 47.1 | -32.7 | 580 | 41 | 102 | -23.1 | growth, % of control at 3 µM (ACHN [21]): 80.3%; growth, % of control at 0.1 µM (MDA-MB-231 [22]): 103%; growth, % of control at 1 µM (NUGC-3 [23]): 60.2%; growth, % of control at 0.3 µM (NUGC-3 [24]): 93.6%; GI50 (NUGC-3 [25]): 560 nM; growth, % of control at 0.3 µM (ACHN [26]): 119%; growth, % of control at 3 µM (NUGC-3 [27]): -5.5%; GI50 (HCT-15 [28]): 860 nM; GI50 (MDA-MB-231 [29]): 1390 nM; growth, % of control at 0.1 µM (NCI-H23 [30]): 86.7%; growth, % of control at 10 µM (MDA-MB-231 [31]): 12.9%; growth, % of control at 0.1 µM (ACHN [32]): 117%; growth, % of control at 1 µM (NCI-H23 [33]): 88.6%; GI50 (ACHN [34]): 1890 nM; growth, % of control at 0.3 µM (NCI-H23 [35]): 93.7%; growth, % of control at 1 µM (PC-3 [36]): 64.6%; growth, % of control at 10 µM (HCT-15 [37]): 1.7% |
| C=CC[N+](CC)(CC)CCN(C)S(=O)(=O)CCCCCCCCCCCCCC | 85.1 | 93.9 | Active | 91.5 | 87.4 | 62.9 | 20.3 | 22.7 | 73.4 | 91.8 | 300 | 54.3 | -6.4 | 79.1 | 10 | 4.6 | 530 | 32.2 | 89.8 | -5.7 | growth, % of control at 3 µM (ACHN [21]): 46.6%; growth, % of control at 0.1 µM (MDA-MB-231 [22]): 89.6%; growth, % of control at 1 µM (NUGC-3 [23]): 14.3%; growth, % of control at 0.3 µM (NUGC-3 [24]): 70.5%; GI50 (NUGC-3 [25]): 210 nM; growth, % of control at 0.3 µM (ACHN [26]): 90.5%; growth, % of control at 3 µM (NUGC-3 [27]): -2.9%; GI50 (HCT-15 [28]): 2030 nM; GI50 (MDA-MB-231 [29]): 710 nM; growth, % of control at 0.1 µM (NCI-H23 [30]): 82.2%; growth, % of control at 10 µM (MDA-MB-231 [31]): 14.5%; growth, % of control at 0.1 µM (ACHN [32]): 92.8%; growth, % of control at 1 µM (NCI-H23 [33]): 31.1%; GI50 (ACHN [34]): 1350 nM; growth, % of control at 0.3 µM (NCI-H23 [35]): 76.5%; growth, % of control at 1 µM (PC-3 [36]): 46.2%; growth, % of control at 10 µM (HCT-15 [37]): 19.2% |
| C=CC[N+](CC)(CC)CCN(C)S(=O)(=O)CCCCCCCCCCCCCCCC | 84 | 90.7 | Active | 88.2 | 97 | 66.6 | -11.8 | 10 | 82.2 | 87.9 | 450 | 80.6 | -20.2 | 89.1 | 16.9 | -13.2 | 760 | 42.9 | 91 | -7.6 | growth, % of control at 3 µM (ACHN [21]): 50.4%; growth, % of control at 0.1 µM (MDA-MB-231 [22]): 94.8%; growth, % of control at 1 µM (NUGC-3 [23]): 34.9%; growth, % of control at 0.3 µM (NUGC-3 [24]): 86.6%; GI50 (NUGC-3 [25]): 390 nM; growth, % of control at 0.3 µM (ACHN [26]): 88.2%; growth, % of control at 3 µM (NUGC-3 [27]): 4.9%; GI50 (HCT-15 [28]): 1810 nM; GI50 (MDA-MB-231 [29]): 1340 nM; growth, % of control at 0.1 µM (NCI-H23 [30]): 77.9%; growth, % of control at 10 µM (MDA-MB-231 [31]): 9.2%; growth, % of control at 0.1 µM (ACHN [32]): 85.9%; growth, % of control at 1 µM (NCI-H23 [33]): 51.3%; GI50 (ACHN [34]): 1450 nM; growth, % of control at 0.3 µM (NCI-H23 [35]): 78.4%; growth, % of control at 1 µM (PC-3 [36]): 73.3%; growth, % of control at 10 µM (HCT-15 [37]): -7% |
